Data set [1] can be described thus: Compound cytotoxicity in PBMCs (MTS). It counts as cell-based, human. Conditions: human, read-out: TC50. The procedure:
(§1) HIV human peripheral blood mononuclear cell (PBMC) assays were performed as described previously (Lanier et al., 2010, Antimicrob Agents Chemother 54:2901-2909 and Ptak et al., 2008, Antimicrob Agents Chemother 52:1302-1317). Briefly, fresh PBMCs, seronegative for HIV and hepatitis B virus (HBV), were isolated from blood samples of the screened donors (Biological Specialty Corporation, Colmar, Pa.) by using lymphocyte separation medium (LSM; density, 1.078±0.002 g/ml; Cellgro; Mediatech, Inc.) by following the manufacturer's instructions. Cells were stimulated by incubation in 4 μg/mL phytohemagglutinin (PHA; Sigma) for 48 to 72 h. Mitogenic stimulation was maintained by the addition of 20 U/mL recombinant human interleukin-2 (rhIL-2; R&D Systems, Inc.) to the culture medium. PHA-stimulated PBMCs from at least two donors were pooled, diluted in fresh medium, and added to 96-well plates at 5×10^4 cells/well. Cells were infected (final multiplicity of infection [MOI] of ≅0.1) in the presence of nine different concentrations of test compounds (triplicate wells/concentration) and incubated for 7 days. To determine the level of virus inhibition, cell-free supernatant samples were collected for analysis of reverse transcriptase activity (Buckheit et al., 1991, AIDS Res Hum Retroviruses 7:295-302). Following removal of supernatant samples, compound cytotoxicity was measured by the addition of 3-(4,5-dimethylthiazol-2-yl)-5-(3-carboxymethoxy-phenyl)-2-(4-sulfophenyl)-2H-tetrazolium (MTS; CellTiter 96 reagent; Promega) by following the manufacturer's instructions.

The next data set deals with HIV-1 NL4-3. Put plainly: Antiviral activity of additional compounds (Tables 6 and 7). It counts as cell-based. The settings on record: for IC50 / IC90: Human immunodeficiency virus 1, NL43. The procedure:
as §1

Another data set deals with HIV-1 Ba-L. The data set is described as above. It counts as cell-based. Conditions: for IC50 / IC90: Human immunodeficiency virus 1, BAL. How it is done: as §1
Data set [2] has as its system luciferase-reporter HIV-1 NL4-3 pseudotyped with HxBc2 envelope produced in 293T cells. Put plainly: microbe, parasite or virus in culture.
The subject of a further data set is SIV MAC251. Put plainly: Antiviral efficacy in PBMCs, reverse transcriptase activity. The format is cell-based.
The test system of the next data set is HIV-1 93IN101. As to the kind of experiment: Anti-HIV efficacy in human PBMCs, reverse transcriptase activity. The settings on record: HIV-1 93IN101, PBMCs. It counts as cell-based. How it is done:
as §1

For another data set, the system named is HIV-1 92BR030. Described as above. The settings on record: HIV-1 92BR030, PBMCs. The format is cell-based. How it is done: as §1
Where [3] appears, read: Simian immunodeficiency virus, PBMC.
Where [4] appears, read: Human immunodeficiency virus 1, PBMC.

Where two headings read alike, the source gives them in different places.

`O=C(CNC(=O)COc1ccccc1)NCc1ccccc1` [CMPD-38, N-benzyl-2-(2-phenoxyacetamido)acetamide]: the CC50 at 7 days in data set [1] (Tables 6 and 7 study) was over 100 µM. In addition, in the data set on HIV-1 NL4-3, the IC50 is over 100 µM and the IC90 was over 100 µM. Besides, in the data set with HIV-1 Ba-L, the IC50 is over 100 µM and the IC90 is over 100 µM.

For the compound `CN1CCN(C(=O)c2ccc(CNC(=O)CNC(=O)COc3ccccc3)cc2)CC1` [CMPD-40, N-(4-(4-methylpiperazine-1-carbonyl)benzyl)-2-(2-phenoxyacetamido)acetamide], the CC50 at 7 days in data set [1] (Tables 6 and 7 study) is over 100 µM. In the data set with HIV-1 NL4-3, the IC50 was over 100 µM and the IC90 is over 100 µM. In the data set with HIV-1 Ba-L, the IC50 was over 100 µM and the IC90 was over 100 µM.

On to `O=C(CNC(=O)COc1ccc(Cl)cc1)NCc1ccc(C(=O)N2CCCCC2)cc1` [CMPD-46, 2-(4-chlorophenoxy)-N-(2-oxo-2-((4-(piperidine-1-carbonyl)benzyl)amino)ethyl)acetamide], for which the CC50 at 7 days in data set [1] (Tables 6 and 7 study) was over 100 µM. For the same compound, in the data set with HIV-1 NL4-3, the “Antiviral index (TC50/IC50)” value is reported as over 1.28, inhibition was half-maximal at 78.1 µM (IC50) and the IC90 was over 100 µM. In addition, in the data set with HIV-1 Ba-L, the “Antiviral index (TC50/IC50)” value was over 1.38, the IC50 was 72.6 µM and the IC90 was over 100 µM.

For the compound `O=C(CNC(=O)COc1ccc(C(F)(F)F)cc1)NCc1ccc(C(=O)N2CCCCC2)cc1` [CMPD-48, N-(2-oxo-2-((4-(piperidine-1-carbonyl)benzyl)amino)ethyl)-2-(4-(trifluoromethyl)phenoxy)acetamide], the CC50 at 7 days in data set [1] (Tables 6 and 7 study) is over 100 µM. In the data set with HIV-1 NL4-3, the “Antiviral index (TC50/IC50)” value is reported as over 4.45, the IC50 stood at 22.5 µM and the IC90 is over 100 µM. Also, in the data set with HIV-1 Ba-L, the “Antiviral index (TC50/IC50)” value is over 4.86, the IC50 amounted to 20.6 µM and the IC90 is over 100 µM.

On to `O=C(CNC(=O)COc1ccccc1)NCc1ccc(Cl)cc1` [CMPD-35, N-(4-chlorobenzyl)-2-(2-phenoxyacetamido)acetamide], for which, in data set [1] (Tables 6 and 7 study), the CC50 at 7 days was over 100 µM. Further, in the data set with HIV-1 NL4-3, the IC50 is over 100 µM and the IC90 is over 100 µM. In the data set with HIV-1 Ba-L, this compound registered a 50% inhibitory concentration (IC50) of over 100 µM and an IC90 of over 100 µM.

Consider `CN1CCN(C(=O)c2ccc(CNC(=O)CNC(=O)COc3ccc(Cl)cc3)cc2)CC1` [CMPD-42, 2-(4-chlorophenoxy)-N-(2-((4-(4-methylpiperazine-1-carbonyl)benzyl)amino)-2-oxoethyl)acetamide], for which the CC50 at 7 days in data set [1] (Tables 6 and 7 study) is over 100 µM. In the data set on HIV-1 NL4-3, this compound returned an IC50 of over 100 µM and an IC90 of over 100 µM. In the data set with HIV-1 Ba-L, the IC50 is over 100 µM and the IC90 is over 100 µM.

`CC(=O)NCC(=O)NCc1ccc(C(=O)N2CCCCC2)cc1` [CMPD-45, 2-acetamido-N-(4-(piperidine-1-carbonyl)benzyl)acetamide]: the CC50 at 7 days in data set [1] (Tables 6 and 7 study) is over 100 µM. In the data set on HIV-1 NL4-3, this compound returned an IC50 of over 100 µM and an IC90 of over 100 µM. Besides, in the data set with HIV-1 Ba-L, the IC50 was over 100 µM and the IC90 was over 100 µM.

Regarding `CN1CCN(C(=O)c2ccc(CNC(=O)CNC(=O)COc3ccc(C(F)(F)F)cc3)cc2)CC1` [CMPD-44, N-(4-(4-methylpiperazine-1-carbonyl)benzyl)-2-(2-(4-(trifluoromethyl)phenoxy)acetamido)acetamide], the CC50 at 7 days in data set [1] (Tables 6 and 7 study) was over 100 µM. Also, the IC50 in the data set with HIV-1 NL4-3 and with HIV-1 Ba-L was over 100 µM throughout. The IC90 with HIV-1 NL4-3 and with HIV-1 Ba-L was over 100 µM in each case.

As to `COc1ccc(OCC(=O)NCC(=O)NCc2ccc(C(=O)N3CCCCC3)cc2)cc1` [CMPD-47, 2-(4-methoxyphenoxy)-N-(2-oxo-2-((4-(piperidine-1-carbonyl)benzyl)amino)ethyl)acetamide], the CC50 at 7 days in data set [1] (Tables 6 and 7 study) was found to be 73.1 µM. Also, in the data set with HIV-1 NL4-3, the “Antiviral index (TC50/IC50)” value was determined as 1.39; the midpoint of inhibition, the IC50, lay at 52.7 µM; the IC90 amounted to 92.7 µM. In the data set on HIV-1 Ba-L, the “Antiviral index (TC50/IC50)” value stood at 1.44, the IC50 stood at 50.8 µM and the IC90 came out at 96.1 µM.

`COc1c(Cl)cc(C(=O)N2CCN(Cc3nc(-c4ccc(C)cc4)no3)CC2)cc1Cl` [CMPD-3, (3,5-dichloro-4-methoxyphenyl)(4-((3-(p-tolyl)-1,2,4-oxadiazol-5-yl)methyl)piperazin-1-yl)methanone] showed an IC50 in data set [2] of over 100 µM.

As for `COc1ccc(CNC(=O)CNC(=O)COc2ccccc2)cc1` [CMPD-36, N-(4-methoxybenzyl)-2-(2-phenoxyacetamido)acetamide], in data set [1] (Tables 6 and 7 study), the CC50 at 7 days is over 100 µM. Moreover, in the data set with HIV-1 NL4-3, the IC50 was over 100 µM and the IC90 was over 100 µM. Also, in the data set on HIV-1 Ba-L, the IC50 was over 100 µM and the IC90 was over 100 µM.

As for `CC(=O)NCC(=O)NCc1ccc(C(=O)N2CCN(C)CC2)cc1` [CMPD-41, 2-acetamido-N-(4-(4-methylpiperazine-1-carbonyl)benzyl)acetamide], the CC50 at 7 days in data set [1] (Tables 6 and 7 study) is over 100 µM. The IC50 with HIV-1 NL4-3 and with HIV-1 Ba-L was over 100 µM each time. Further, the IC90 with HIV-1 NL4-3 and in the data set with HIV-1 Ba-L was over 100 µM each time.

For the compound `O=C(CNC(=O)COc1ccccc1)NCc1cccc(Cl)c1` [CMPD-39, N-(3-chlorobenzyl)-2-(2-phenoxyacetamido)acetamide], in data set [1] (Tables 6 and 7 study), the CC50 at 7 days was over 100 µM. For the same compound, the IC50 with HIV-1 NL4-3 and in the data set on HIV-1 Ba-L was over 100 µM throughout. For the same compound, the IC90 with HIV-1 NL4-3 and in the data set with HIV-1 Ba-L was over 100 µM in each case.

Take `COc1ccc(OCC(=O)NCC(=O)NCc2ccc(C(=O)N3CCN(C)CC3)cc2)cc1` [CMPD-43, 2-(4-methoxyphenoxy)-N-(2-((4-(4-methylpiperazine-1-carbonyl)benzyl)amino)-2-oxoethyl)acetamide]: in data set [1] (Tables 6 and 7 study), the CC50 at 7 days is over 100 µM. In addition, the IC50 in the data set with HIV-1 NL4-3 and in the data set on HIV-1 Ba-L was over 100 µM in each case. The IC90 in the data set on HIV-1 NL4-3 and in the data set on HIV-1 Ba-L was over 100 µM in each case.

In the case of `O=C(CNC(=O)COc1ccccc1)NCc1ccc(C(F)(F)F)cc1` [CMPD-37, N-(2-oxo-2-((4-(trifluoromethyl)benzyl)amino)ethyl)-2-phenoxyacetamide], the CC50 at 7 days in data set [1] (Tables 6 and 7 study) was over 100 µM. Moreover, in the data set with HIV-1 NL4-3, the IC50 is over 100 µM and the IC90 is over 100 µM. In the data set with HIV-1 Ba-L, this compound registered an IC50 of over 100 µM and an IC90 of over 100 µM.

In the case of `COc1ccccc1-c1noc(=O)n1-c1cccc(C(F)(F)F)c1` [ITI-367, 3-(2-methoxyphenyl)-4-[3-trifluoromethyl-phenyl]-1,2,4-oxadiazol-5-one, reference compound], the CC50 at 7 days in data set [1] (Table 4 study, PBMCs) is over 100 µM. Moreover, the “Antiviral index (TC50/IC50)” value is over 1.33 with SIV MAC251, over 2.39 in the data set with HIV-1 93IN101 and over 2.13 in the data set with HIV-1 92BR030. Besides, the IC50 was 74.9 µM in the data set on SIV MAC251 (setting [3]), 41.9 µM in the data set on HIV-1 93IN101 (setting [4]) and 47 µM in the data set on HIV-1 92BR030 (setting [4]). Also, the IC90 with SIV MAC251 (setting [3]) is over 100 µM; in the data set on HIV-1 93IN101 (setting [4]) it was 96 µM; in the data set on HIV-1 92BR030 (setting [4]), over 100 µM.

What is called IC50 is the concentration that gives 50% inhibition. Read a high IC50 as a need for much substance. As usually defined, the IC90 is the point of the concentration-response curve where the effect stands at 90%. A lower IC90 goes with greater potency.

Source of the values: patent publication US20130109698A1, “Small Molecule Inhibitors of Functions of the HIV-1 Matrix Protein” (priority 2010, published 2013).
